Measured values reported in ChEMBL document CHEMBL3813624, “Discovery of hydroxyl 1,2-diphenylethanamine analogs as potent cholesterol ester transfer protein inhibitors” (Bioorg Med Chem Lett, 2016).
Values after ≈ are worked out from the molar mass of the structure shown. Active and inactive are the calls of the source. The rule behind the calls is not given here.

How the values were obtained:
[1] = target: T1, Cholesteryl ester transfer protein (Homo sapiens, UniProt P11597); test: Inhibition of CETP in human whole plasma assessed as reduction in [3H]cholesteryl ester transfer from [3H]CE-HDL to LDL/VLDL; type: cell-free
T1 sequence (P11597 whole entry): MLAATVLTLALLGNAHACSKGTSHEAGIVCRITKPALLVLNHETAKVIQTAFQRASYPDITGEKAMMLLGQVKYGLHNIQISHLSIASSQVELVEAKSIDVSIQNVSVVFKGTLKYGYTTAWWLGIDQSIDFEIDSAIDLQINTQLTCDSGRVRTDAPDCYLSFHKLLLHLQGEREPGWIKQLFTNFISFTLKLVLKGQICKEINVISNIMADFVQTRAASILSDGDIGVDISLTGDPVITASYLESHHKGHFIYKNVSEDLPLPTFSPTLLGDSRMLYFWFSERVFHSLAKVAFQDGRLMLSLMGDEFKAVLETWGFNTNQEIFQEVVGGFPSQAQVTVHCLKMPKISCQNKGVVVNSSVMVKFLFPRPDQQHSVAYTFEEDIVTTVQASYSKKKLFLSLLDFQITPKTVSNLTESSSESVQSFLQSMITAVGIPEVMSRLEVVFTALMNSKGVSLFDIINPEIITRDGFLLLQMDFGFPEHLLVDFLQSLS

[2] = target: T1, Cholesteryl ester transfer protein; test: Inhibition of human recombinant CETP assessed as reduction in [3H]cholesteryl ester transfer from [3H]CE-HDL to biotinylated LDL by scintillation proximity assay
[3] = Aqueous solubility of compound; type: physicochemical; conditions: buffer
[4] = target: T2, Voltage-gated inwardly rectifying potassium channel KCNH2 (Homo sapiens, UniProt Q12809); test: Inhibition of recombinant human ERG flux expressed in HEK293 cells by patch clamp assay; type: cell-based
Mus musculus [5] = test: In vivo inhibition of human CETP-mediated [3H]cholesteryl ester transfer in human CETP expressed transgenic mouse coexpressing ApoB-100 at 30 mg/kg, po measured at 2 to 8 hrs post dose; type: functional, organism-based
[6] = Ratio of plasma concentration in dual transgenic mouse expressing human CETP/ApoB-100 at 30 mg/kg, po measured at 2 hrs post dose to IC50 for CETP in human whole plasma; type: ADME, organism-based; conditions: in vivo
Oryctolagus cuniculus [7] = test: Cardiotoxicity in rabbit assessed as changes in QT interval up to 10 mg/kg by electrophysiology method; type: toxicity, organism-based; conditions: in vivo
Oryctolagus cuniculus [8] = test: Cardiotoxicity in rabbit assessed as QRS prolongation at 30 mg/kg by electrophysiology method; type: toxicity, organism-based; conditions: in vivo
[9] = Metabolic stability in mouse liver microsomes assessed as compound remaining at 3 uM after 10 mins by UV absorbance method; type: ADME; conditions: read-out: Stability
[10] = Ratio of plasma concentration in dual transgenic mouse expressing human CETP/ApoB-100 at 30 mg/kg, po measured at 4 hrs post dose to IC50 for CETP in human whole plasma; type: ADME, organism-based; conditions: in vivo
[11] = Plasma concentration in dual transgenic mouse expressing human CETP/ApoB-100 at 30 mg/kg, po measured at 4 hrs post dose; type: ADME, organism-based
[12] = Plasma concentration in dual transgenic mouse expressing human CETP/ApoB-100 at 30 mg/kg, po measured at 8 hrs post dose; type: ADME, organism-based
[13] = Metabolic stability in rat liver microsomes assessed as compound remaining at 3 uM after 10 mins by UV absorbance method; type: ADME; conditions: read-out: Stability
Oryctolagus cuniculus [14] = test: Cardiotoxicity in rabbit assessed as QT prolongation at 30 mg/kg by electrophysiology method; type: toxicity, organism-based; conditions: in vivo
[15] = Plasma concentration in dual transgenic mouse expressing human CETP/ApoB-100 at 30 mg/kg, po measured at 2 hrs post dose; type: ADME, organism-based
hERG (KCNH2) [16] = target: T3, hERG (KCNH2) (Homo sapiens, UniProt Q12809); test: Inhibition of recombinant human ERG expressed in HEK293 cells assessed as inhibition of peak tail current at 1 uM by patch clamp assay relative to control; type: cell-based; conditions: HEK293 cells expressing recombinant human ERG
Oryctolagus cuniculus [17] = test: Cardiotoxicity in rabbit assessed as changes in QTcf interval up to 10 mg/kg by electrophysiology method; type: toxicity, organism-based; conditions: in vivo
Oryctolagus cuniculus [18] = test: Cardiotoxicity in rabbit assessed as QT prolongation up to 10 mg/kg by electrophysiology method; type: toxicity, organism-based; conditions: in vivo
[19] = Metabolic stability in human liver microsomes assessed as compound remaining at 3 uM after 10 mins by UV absorbance method; type: ADME; conditions: read-out: Stability
[20] = AUC (0 to 8 hrs) in dual transgenic mouse plasma expressing human CETP/ApoB-100 at 30 mg/kg, po; type: ADME, organism-based; set-up: dose 30 mg/kg, time < 8 hr, route oral
Oryctolagus cuniculus [21] = test: Cardiotoxicity in rabbit assessed as changes in QTcv interval up to 10 mg/kg by electrophysiology method; type: toxicity, organism-based; conditions: in vivo
hERG (KCNH2) [22] = target: T3, hERG (KCNH2); test: Inhibition of recombinant human ERG expressed in HEK293 cells assessed as inhibition of peak tail current at 3 uM by patch clamp assay relative to control; type: cell-based; conditions: HEK293 cells expressing recombinant human ERG
[23] = Plasma concentration in dual transgenic mouse expressing human CETP/ApoB-100 at 1 mg/kg, po measured at 2 hrs post dose; type: ADME, organism-based
[24] = Plasma concentration in dual transgenic mouse expressing human CETP/ApoB-100 at 3 mg/kg, po measured at 8 hrs post dose; type: ADME, organism-based
[25] = Ratio of plasma concentration in dual transgenic mouse expressing human CETP/ApoB-100 at 10 mg/kg, po measured at 2 hrs post dose to IC50 for CETP in human whole plasma; type: ADME, organism-based; conditions: in vivo
[26] = Plasma concentration in dual transgenic mouse expressing human CETP/ApoB-100 at 3 mg/kg, po measured at 2 hrs post dose; type: ADME, organism-based
[27] = Ratio of plasma concentration in dual transgenic mouse expressing human CETP/ApoB-100 at 10 mg/kg, po measured at 4 hrs post dose to IC50 for CETP in human whole plasma; type: ADME, organism-based; conditions: in vivo
Mus musculus [28] = test: In vivo inhibition of human CETP-mediated [3H]cholesteryl ester transfer in human CETP expressed transgenic mouse coexpressing ApoB-100 at 3 to 10 mg/kg, po measured at 8 hrs post dose relative to control; type: functional
[29] = Plasma concentration in dual transgenic mouse expressing human CETP/ApoB-100 at 3 mg/kg, po measured at 4 hrs post dose; type: ADME, organism-based
[30] = AUC (0 to 8 hrs) in dual transgenic mouse plasma expressing human CETP/ApoB-100 at 3 mg/kg, po; type: ADME, organism-based; set-up: dose 3 mg/kg, time < 8 hr, route oral
[31] = Plasma concentration in dual transgenic mouse expressing human CETP/ApoB-100 at 10 mg/kg, po measured at 2 hrs post dose; type: ADME, organism-based
[32] = Plasma concentration in dual transgenic mouse expressing human CETP/ApoB-100 at 10 mg/kg, po measured at 4 hrs post dose; type: ADME, organism-based
[33] = Plasma concentration in dual transgenic mouse expressing human CETP/ApoB-100 at 1 mg/kg, po measured at 4 hrs post dose; type: ADME, organism-based
[34] = Plasma concentration in dual transgenic mouse expressing human CETP/ApoB-100 at 10 mg/kg, po measured at 8 hrs post dose; type: ADME, organism-based
[35] = Plasma concentration in dual transgenic mouse expressing human CETP/ApoB-100 at 1 mg/kg, po measured at 8 hrs post dose; type: ADME, organism-based
[36] = AUC (0 to 8 hrs) in dual transgenic mouse plasma expressing human CETP/ApoB-100 at 10 mg/kg, po; type: ADME, organism-based; set-up: time < 8 hr, dose 10 mg/kg, route oral
[37] = target: T2, Voltage-gated inwardly rectifying potassium channel KCNH2; test: Inhibition of recombinant human ERG expressed in HEK293 cells assessed as inhibition of peak tail current by patch clamp assay; type: cell-based
[38] = AUC (0 to 8 hrs) in dual transgenic mouse plasma expressing human CETP/ApoB-100 at 1 mg/kg, po; type: ADME, organism-based; set-up: time < 8 hr, dose 1 mg/kg, route oral

T2 sequence (Q12809 whole entry): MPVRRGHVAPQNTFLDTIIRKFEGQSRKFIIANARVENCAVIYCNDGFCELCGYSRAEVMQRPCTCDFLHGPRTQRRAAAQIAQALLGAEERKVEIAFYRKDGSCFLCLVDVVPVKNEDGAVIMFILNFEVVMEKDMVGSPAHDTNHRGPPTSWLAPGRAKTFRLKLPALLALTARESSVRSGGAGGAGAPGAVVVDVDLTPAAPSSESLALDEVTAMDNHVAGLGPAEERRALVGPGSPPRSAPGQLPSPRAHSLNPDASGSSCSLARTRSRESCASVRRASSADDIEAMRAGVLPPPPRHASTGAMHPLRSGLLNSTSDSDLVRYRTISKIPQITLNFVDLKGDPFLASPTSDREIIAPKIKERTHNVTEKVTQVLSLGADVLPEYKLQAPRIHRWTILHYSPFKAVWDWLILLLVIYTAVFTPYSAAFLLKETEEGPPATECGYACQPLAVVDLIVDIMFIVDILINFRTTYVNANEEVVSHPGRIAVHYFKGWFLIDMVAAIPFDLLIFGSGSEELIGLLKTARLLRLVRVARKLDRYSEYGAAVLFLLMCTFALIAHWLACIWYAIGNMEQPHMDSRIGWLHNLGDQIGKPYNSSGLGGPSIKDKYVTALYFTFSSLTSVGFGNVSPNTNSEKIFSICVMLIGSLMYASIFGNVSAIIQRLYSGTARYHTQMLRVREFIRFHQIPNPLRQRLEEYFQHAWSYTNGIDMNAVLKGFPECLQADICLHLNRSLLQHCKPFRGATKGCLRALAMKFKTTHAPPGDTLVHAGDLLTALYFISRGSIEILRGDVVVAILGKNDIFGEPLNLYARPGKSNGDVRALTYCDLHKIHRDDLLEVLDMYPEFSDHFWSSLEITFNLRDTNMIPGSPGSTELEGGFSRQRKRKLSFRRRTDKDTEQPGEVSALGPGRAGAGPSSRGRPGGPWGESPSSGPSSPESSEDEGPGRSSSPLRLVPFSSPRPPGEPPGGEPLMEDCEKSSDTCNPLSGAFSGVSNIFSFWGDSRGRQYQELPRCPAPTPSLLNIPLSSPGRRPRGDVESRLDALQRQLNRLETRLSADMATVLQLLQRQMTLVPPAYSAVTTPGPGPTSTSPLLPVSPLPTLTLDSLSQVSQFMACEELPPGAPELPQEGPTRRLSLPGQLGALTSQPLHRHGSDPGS
T3 sequence (Q12809 whole entry): as above

| IC50 [1] [nM] | IC50 [2] [nM] | solubility [3] [µg/mL] | remaining at 10 min, 3 µM [9] [%] | remaining at 10 min, 3 µM [13] [%] | remaining at 10 min, 3 µM [19] [%] | Compound | other results |
| --- | --- | --- | --- | --- | --- | --- | --- |
| 98000 | 3100 | 37 (≈ 78.9 µM) |  |  |  | OC[C@@H](O)CN[C@@](Cc1ccccc1)(c1cc(F)cc(C(F)(F)F)c1)c1ccc(Cl)cn1 |  |
| 100000 | 826 | < 1 |  |  |  | CC(=O)O[C@H](CN[C@@](Cc1ccccc1)(c1cc(F)cc(C(F)(F)F)c1)c1ccc(Cl)cn1)C(F)(F)F |  |
| 238 | 2.9 |  |  |  |  | CC(C)Oc1cc([C@@](Cc2ccccc2)(NC[C@H](O)C(F)(F)F)c2cc(F)cc(OC(F)(F)C(F)F)c2)ccc1F | IC50 [4]: 12000 nM |
| 900 | 14 |  | 88 | 84 | 100 | O[C@H](CN[C@@](Cc1ccccc1)(c1cc(F)cc(OC(F)(F)C(F)F)c1)c1ccc(Cl)cn1)C(F)(F)F | inhibition (Mus musculus [5]): Active; Ratio [6]: 5.7; Activity (Oryctolagus cuniculus [7]): Non-toxic; Activity (Oryctolagus cuniculus [8]): Toxic; Ratio [10]: 3.3; concentration at 4 h [11]: 3000 nM; concentration at 8 h [12]: 1300 nM; Activity (Oryctolagus cuniculus [14]): Toxic; concentration at 2 h [15]: 5200 nM; inhibition at 1 µM (hERG (KCNH2) [16]): 43%; Activity (Oryctolagus cuniculus [17]): Non-toxic; Activity (Oryctolagus cuniculus [18]): Non-toxic; AUC(0-t) at 8 h [20]: 26.9 µM·h; Activity (Oryctolagus cuniculus [21]): Non-toxic; inhibition at 3 µM (hERG (KCNH2) [22]): 87% |
| 30000 | 641 | < 1 |  |  |  | O=C(CN[C@@](Cc1ccccc1)(c1cc(F)cc(C(F)(F)F)c1)c1ccc(Cl)cn1)CC(F)(F)F |  |
| 169 | 2.5 |  |  |  |  | CC(C)Oc1cc([C@@](Cc2ccccc2)(NC[C@@H](O)CC(F)(F)F)c2cc(F)cc(OC(F)(F)C(F)F)c2)ccc1F | IC50 [4]: 23000 nM |
| 600 | 1.5 |  | 88 | 87 | 100 | OC(CN[C@@](Cc1ccccc1)(c1cc(F)cc(OC(F)(F)C(F)F)c1)c1ccc(Cl)cn1)CC(F)(F)F (stereo partly specified) | concentration at 4 h [11]: 2600 nM; concentration at 8 h [12]: 490 nM; concentration at 2 h [15]: 5400 nM; AUC(0-t) at 8 h [20]: 18.1 µM·h |
| 49 | 1.3 |  | 85 | 83 | 83 | CC(C)Oc1cc([C@@](Cc2ccccc2)(NC[C@H](O)CC(F)(F)F)c2cc(F)cc(OC(F)(F)C(F)F)c2)ccc1F | concentration at 2 h [23]: 180 nM; concentration at 8 h [24]: 45 nM; Ratio [25]: 19; concentration at 2 h [26]: 380 nM; Ratio [27]: 5; inhibition (INH) (Mus musculus [28]): 50%; concentration at 4 h [29]: 89 nM; AUC(0-t) at 8 h [30]: 1.04 µM·h; concentration at 2 h [31]: 960 nM; IC50 [4]: 28000 nM; concentration at 4 h [32]: 250 nM; concentration at 4 h [33]: 54 nM; concentration at 8 h [34]: 92 nM; concentration at 8 h [35]: 28 nM; AUC(0-t) at 8 h [36]: 2.66 µM·h; IC50 [37]: 25600 nM; AUC(0-t) at 8 h [38]: 0.543 µM·h |
| 20000 | 334 | < 1 |  |  |  | C[C@H](O)CN[C@@](Cc1ccccc1)(c1cc(F)cc(C(F)(F)F)c1)c1ccc(Cl)cn1 |  |
| 1600 | 22 | < 1 | 95 | 88 | 100 | O[C@H](CN[C@@](Cc1ccccc1)(c1cc(F)cc(C(F)(F)F)c1)c1ccc(Cl)cn1)C(F)(F)F |  |
|  | 8530 | 44 (≈ 93.8 µM) |  |  |  | OC[C@H](O)CN[C@@](Cc1ccccc1)(c1cc(F)cc(C(F)(F)F)c1)c1ccc(Cl)cn1 |  |
| 32000 | 520 | < 1 |  |  |  | C[C@@H](O)CN[C@@](Cc1ccccc1)(c1cc(F)cc(C(F)(F)F)c1)c1ccc(Cl)cn1 |  |
| 1200 | 9 | < 1 | 73 | 69 | 93 | OC(CN[C@@](Cc1ccccc1)(c1cc(F)cc(C(F)(F)F)c1)c1ccc(Cl)cn1)CC(F)(F)F (stereo partly specified) |  |
| 48000 | 253 | < 1 |  |  |  | CO[C@H](CN[C@@](Cc1ccccc1)(c1cc(F)cc(C(F)(F)F)c1)c1ccc(Cl)cn1)C(F)(F)F |  |
| 55 | 1.8 |  | 85 | 83 | 83 | CC(C)Oc1cc([C@@](Cc2ccccc2)(NC[C@@H](O)C(F)(F)F)c2cc(F)cc(OC(F)(F)C(F)F)c2)ccc1F | IC50 [4]: 21000 nM |
| 7000 | 52 | < 1 | 100 | 97 | 93 | O=C(N[C@@](Cc1ccccc1)(c1cc(F)cc(C(F)(F)F)c1)c1ccc(Cl)cn1)c1ccc(F)c(C(F)(F)F)c1 |  |
